# Test results as given in BigSolDB 2.1.
smiles,measurement,setting,value
O=C1/C(=C/c2ccc(O)cc2)CCC/C1=C\c1ccc(O)cc1,solubility (mole fraction),"in 1,4-dioxane, 299.15 K",0.0074
same,solubility (mole fraction),"in 1,4-dioxane, 303.15 K",0.0085
same,solubility (mole fraction),"in 1,4-dioxane, 308.15 K",0.0101
same,solubility (mole fraction),"in 1,4-dioxane, 313.15 K",0.0115
same,solubility (mole fraction),"in 1,4-dioxane, 318.15 K",0.0135
same,solubility (mole fraction),"in 1,4-dioxane, 323.15 K",0.0153
same,solubility (mole fraction),"in 1,4-dioxane, 328.15 K",0.0172
same,solubility (mole fraction),"in DMF, 299.15 K",0.0332
same,solubility (mole fraction),"in DMF, 303.15 K",0.0388
same,solubility (mole fraction),"in DMF, 308.15 K",0.0458
same,solubility (mole fraction),"in DMF, 313.15 K",0.0556
same,solubility (mole fraction),"in DMF, 318.15 K",0.0658
same,solubility (mole fraction),"in DMF, 323.15 K",0.0816
same,solubility (mole fraction),"in DMF, 328.15 K",0.106
same,solubility (mole fraction),"in DMSO, 299.15 K",0.0112
same,solubility (mole fraction),"in DMSO, 303.15 K",0.0132
same,solubility (mole fraction),"in DMSO, 308.15 K",0.0156
same,solubility (mole fraction),"in DMSO, 313.15 K",0.0251
same,solubility (mole fraction),"in DMSO, 318.15 K",0.0371
same,solubility (mole fraction),"in DMSO, 323.15 K",0.0528
same,solubility (mole fraction),"in DMSO, 328.15 K",0.0742
same,solubility (mole fraction),"in THF, 299.15 K",0.023
same,solubility (mole fraction),"in THF, 303.15 K",0.0256
same,solubility (mole fraction),"in THF, 308.15 K",0.0281
same,solubility (mole fraction),"in THF, 313.15 K",0.0319
same,solubility (mole fraction),"in THF, 318.15 K",0.0387
same,solubility (mole fraction),"in THF, 323.15 K",0.0461
same,solubility (mole fraction),"in THF, 328.15 K",0.0527
same,solubility (mole fraction),"in acetic acid, 299.15 K",0.0032
same,solubility (mole fraction),"in acetic acid, 303.15 K",0.0034
same,solubility (mole fraction),"in acetic acid, 308.15 K",0.0036
same,solubility (mole fraction),"in acetic acid, 313.15 K",0.0039
same,solubility (mole fraction),"in acetic acid, 318.15 K",0.0044
same,solubility (mole fraction),"in acetic acid, 323.15 K",0.0052
same,solubility (mole fraction),"in acetic acid, 328.15 K",0.0063
same,solubility (mole fraction),"in acetone, 299.15 K",0.0049
same,solubility (mole fraction),"in acetone, 303.15 K",0.0061
same,solubility (mole fraction),"in acetone, 308.15 K",0.0073
same,solubility (mole fraction),"in acetone, 313.15 K",0.0093
same,solubility (mole fraction),"in acetone, 318.15 K",0.0114
same,solubility (mole fraction),"in acetone, 323.15 K",0.0128
same,solubility (mole fraction),"in acetone, 328.15 K",0.0147
same,solubility (mole fraction),"in ethyl acetate, 299.15 K",0.0021
same,solubility (mole fraction),"in ethyl acetate, 303.15 K",0.0031
same,solubility (mole fraction),"in ethyl acetate, 308.15 K",0.004
same,solubility (mole fraction),"in ethyl acetate, 313.15 K",0.0053
same,solubility (mole fraction),"in ethyl acetate, 318.15 K",0.0069
same,solubility (mole fraction),"in ethyl acetate, 323.15 K",0.0102
same,solubility (mole fraction),"in ethyl acetate, 328.15 K",0.0136
same,solubility (mole fraction),"in methanol, 299.15 K",0.0034
same,solubility (mole fraction),"in methanol, 303.15 K",0.0041
same,solubility (mole fraction),"in methanol, 308.15 K",0.0051
same,solubility (mole fraction),"in methanol, 313.15 K",0.0066
same,solubility (mole fraction),"in methanol, 318.15 K",0.0086
same,solubility (mole fraction),"in methanol, 323.15 K",0.0102
same,solubility (mole fraction),"in methanol, 328.15 K",0.0129
same,solubility (mole fraction),"in n-butanol, 299.15 K",0.0134
same,solubility (mole fraction),"in n-butanol, 303.15 K",0.0142
same,solubility (mole fraction),"in n-butanol, 308.15 K",0.0152
same,solubility (mole fraction),"in n-butanol, 313.15 K",0.0164
same,solubility (mole fraction),"in n-butanol, 318.15 K",0.0178
same,solubility (mole fraction),"in n-butanol, 323.15 K",0.021
same,solubility (mole fraction),"in n-butanol, 328.15 K",0.0235
same,solubility (mole fraction),"in n-propanol, 299.15 K",0.0013
same,solubility (mole fraction),"in n-propanol, 303.15 K",0.0023
same,solubility (mole fraction),"in n-propanol, 308.15 K",0.0036
same,solubility (mole fraction),"in n-propanol, 313.15 K",0.0056
same,solubility (mole fraction),"in n-propanol, 318.15 K",0.0086
same,solubility (mole fraction),"in n-propanol, 323.15 K",0.0123
same,solubility (mole fraction),"in n-propanol, 328.15 K",0.0169
